Reference: PMC6309937 (Pain, 2019)

Legend:
Type in all cases: cell-based
hCav3.2 = hCav3.2 (Homo sapiens, UniProt O95180); test: whole-cell patch clamp, % inhibition of current; conditions: read-out: 20μM
hCav3.3 = hCav3.3 (Homo sapiens, UniProt Q9P0X4); test: whole-cell patch clamp, % inhibition of current; conditions: read-out: 20μM
rCav2.2 = rCav2.2 (Rattus norvegicus, UniProt Q02294); test: whole-cell patch clamp, % inhibition of current at […]; conditions: read-out: % inhibition at 20 μM
rCav2.2, sequence (Q02294 whole entry): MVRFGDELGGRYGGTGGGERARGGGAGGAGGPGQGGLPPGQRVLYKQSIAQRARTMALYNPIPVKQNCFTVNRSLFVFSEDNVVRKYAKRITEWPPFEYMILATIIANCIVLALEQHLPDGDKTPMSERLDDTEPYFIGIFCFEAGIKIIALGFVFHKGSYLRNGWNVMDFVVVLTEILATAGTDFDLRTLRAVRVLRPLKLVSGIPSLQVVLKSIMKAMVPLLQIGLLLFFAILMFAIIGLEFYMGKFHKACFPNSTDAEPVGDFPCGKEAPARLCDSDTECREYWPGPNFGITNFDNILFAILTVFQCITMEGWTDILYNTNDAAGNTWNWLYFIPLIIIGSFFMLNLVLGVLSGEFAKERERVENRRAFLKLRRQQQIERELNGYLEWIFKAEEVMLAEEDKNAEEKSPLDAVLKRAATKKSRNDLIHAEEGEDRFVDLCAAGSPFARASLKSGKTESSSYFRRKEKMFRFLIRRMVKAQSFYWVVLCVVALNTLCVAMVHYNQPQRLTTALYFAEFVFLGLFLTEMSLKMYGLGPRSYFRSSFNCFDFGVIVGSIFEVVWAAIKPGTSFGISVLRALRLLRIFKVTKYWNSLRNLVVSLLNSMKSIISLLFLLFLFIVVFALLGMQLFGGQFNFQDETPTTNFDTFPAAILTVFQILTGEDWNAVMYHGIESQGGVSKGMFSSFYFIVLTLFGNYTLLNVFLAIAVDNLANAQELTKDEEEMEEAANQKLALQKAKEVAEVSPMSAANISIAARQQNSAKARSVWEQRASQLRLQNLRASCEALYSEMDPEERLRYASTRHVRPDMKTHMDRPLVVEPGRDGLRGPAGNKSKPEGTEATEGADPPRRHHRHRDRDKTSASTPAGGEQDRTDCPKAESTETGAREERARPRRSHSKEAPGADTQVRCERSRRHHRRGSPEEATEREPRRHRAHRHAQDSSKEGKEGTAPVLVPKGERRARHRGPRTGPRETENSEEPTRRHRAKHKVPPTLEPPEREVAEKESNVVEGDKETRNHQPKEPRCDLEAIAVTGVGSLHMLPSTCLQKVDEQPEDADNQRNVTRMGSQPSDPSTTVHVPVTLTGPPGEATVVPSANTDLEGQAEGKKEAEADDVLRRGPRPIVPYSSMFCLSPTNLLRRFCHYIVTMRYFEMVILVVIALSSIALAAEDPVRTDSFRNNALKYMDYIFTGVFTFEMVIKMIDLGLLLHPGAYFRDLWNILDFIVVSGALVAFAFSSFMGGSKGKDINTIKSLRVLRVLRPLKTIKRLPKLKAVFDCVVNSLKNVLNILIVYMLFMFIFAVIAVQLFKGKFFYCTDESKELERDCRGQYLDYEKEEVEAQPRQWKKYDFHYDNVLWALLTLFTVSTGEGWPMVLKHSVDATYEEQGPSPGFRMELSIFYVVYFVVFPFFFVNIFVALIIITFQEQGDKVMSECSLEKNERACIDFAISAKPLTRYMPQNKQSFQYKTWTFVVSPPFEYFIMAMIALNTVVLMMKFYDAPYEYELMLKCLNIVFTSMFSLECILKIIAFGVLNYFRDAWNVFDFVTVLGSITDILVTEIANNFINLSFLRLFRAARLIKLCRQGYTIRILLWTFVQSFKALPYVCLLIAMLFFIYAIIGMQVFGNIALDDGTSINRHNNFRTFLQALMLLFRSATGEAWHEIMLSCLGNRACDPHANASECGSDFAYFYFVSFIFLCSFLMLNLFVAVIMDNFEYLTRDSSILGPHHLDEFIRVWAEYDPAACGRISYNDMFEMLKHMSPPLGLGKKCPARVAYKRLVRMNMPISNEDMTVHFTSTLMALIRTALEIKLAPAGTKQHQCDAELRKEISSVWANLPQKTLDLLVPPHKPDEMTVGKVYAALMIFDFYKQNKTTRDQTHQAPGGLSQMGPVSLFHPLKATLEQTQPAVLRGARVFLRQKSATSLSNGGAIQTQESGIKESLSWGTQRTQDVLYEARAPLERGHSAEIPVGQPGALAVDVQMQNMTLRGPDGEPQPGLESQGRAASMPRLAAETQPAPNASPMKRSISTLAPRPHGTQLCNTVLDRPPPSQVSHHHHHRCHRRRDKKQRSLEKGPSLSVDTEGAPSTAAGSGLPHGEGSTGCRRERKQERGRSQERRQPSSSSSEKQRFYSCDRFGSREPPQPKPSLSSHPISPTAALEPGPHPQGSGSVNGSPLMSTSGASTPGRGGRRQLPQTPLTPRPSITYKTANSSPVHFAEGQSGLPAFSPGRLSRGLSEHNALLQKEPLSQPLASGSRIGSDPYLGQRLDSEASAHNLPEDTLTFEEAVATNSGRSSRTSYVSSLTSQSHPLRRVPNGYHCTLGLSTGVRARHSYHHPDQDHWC

hCav3.2, sequence (O95180 whole entry): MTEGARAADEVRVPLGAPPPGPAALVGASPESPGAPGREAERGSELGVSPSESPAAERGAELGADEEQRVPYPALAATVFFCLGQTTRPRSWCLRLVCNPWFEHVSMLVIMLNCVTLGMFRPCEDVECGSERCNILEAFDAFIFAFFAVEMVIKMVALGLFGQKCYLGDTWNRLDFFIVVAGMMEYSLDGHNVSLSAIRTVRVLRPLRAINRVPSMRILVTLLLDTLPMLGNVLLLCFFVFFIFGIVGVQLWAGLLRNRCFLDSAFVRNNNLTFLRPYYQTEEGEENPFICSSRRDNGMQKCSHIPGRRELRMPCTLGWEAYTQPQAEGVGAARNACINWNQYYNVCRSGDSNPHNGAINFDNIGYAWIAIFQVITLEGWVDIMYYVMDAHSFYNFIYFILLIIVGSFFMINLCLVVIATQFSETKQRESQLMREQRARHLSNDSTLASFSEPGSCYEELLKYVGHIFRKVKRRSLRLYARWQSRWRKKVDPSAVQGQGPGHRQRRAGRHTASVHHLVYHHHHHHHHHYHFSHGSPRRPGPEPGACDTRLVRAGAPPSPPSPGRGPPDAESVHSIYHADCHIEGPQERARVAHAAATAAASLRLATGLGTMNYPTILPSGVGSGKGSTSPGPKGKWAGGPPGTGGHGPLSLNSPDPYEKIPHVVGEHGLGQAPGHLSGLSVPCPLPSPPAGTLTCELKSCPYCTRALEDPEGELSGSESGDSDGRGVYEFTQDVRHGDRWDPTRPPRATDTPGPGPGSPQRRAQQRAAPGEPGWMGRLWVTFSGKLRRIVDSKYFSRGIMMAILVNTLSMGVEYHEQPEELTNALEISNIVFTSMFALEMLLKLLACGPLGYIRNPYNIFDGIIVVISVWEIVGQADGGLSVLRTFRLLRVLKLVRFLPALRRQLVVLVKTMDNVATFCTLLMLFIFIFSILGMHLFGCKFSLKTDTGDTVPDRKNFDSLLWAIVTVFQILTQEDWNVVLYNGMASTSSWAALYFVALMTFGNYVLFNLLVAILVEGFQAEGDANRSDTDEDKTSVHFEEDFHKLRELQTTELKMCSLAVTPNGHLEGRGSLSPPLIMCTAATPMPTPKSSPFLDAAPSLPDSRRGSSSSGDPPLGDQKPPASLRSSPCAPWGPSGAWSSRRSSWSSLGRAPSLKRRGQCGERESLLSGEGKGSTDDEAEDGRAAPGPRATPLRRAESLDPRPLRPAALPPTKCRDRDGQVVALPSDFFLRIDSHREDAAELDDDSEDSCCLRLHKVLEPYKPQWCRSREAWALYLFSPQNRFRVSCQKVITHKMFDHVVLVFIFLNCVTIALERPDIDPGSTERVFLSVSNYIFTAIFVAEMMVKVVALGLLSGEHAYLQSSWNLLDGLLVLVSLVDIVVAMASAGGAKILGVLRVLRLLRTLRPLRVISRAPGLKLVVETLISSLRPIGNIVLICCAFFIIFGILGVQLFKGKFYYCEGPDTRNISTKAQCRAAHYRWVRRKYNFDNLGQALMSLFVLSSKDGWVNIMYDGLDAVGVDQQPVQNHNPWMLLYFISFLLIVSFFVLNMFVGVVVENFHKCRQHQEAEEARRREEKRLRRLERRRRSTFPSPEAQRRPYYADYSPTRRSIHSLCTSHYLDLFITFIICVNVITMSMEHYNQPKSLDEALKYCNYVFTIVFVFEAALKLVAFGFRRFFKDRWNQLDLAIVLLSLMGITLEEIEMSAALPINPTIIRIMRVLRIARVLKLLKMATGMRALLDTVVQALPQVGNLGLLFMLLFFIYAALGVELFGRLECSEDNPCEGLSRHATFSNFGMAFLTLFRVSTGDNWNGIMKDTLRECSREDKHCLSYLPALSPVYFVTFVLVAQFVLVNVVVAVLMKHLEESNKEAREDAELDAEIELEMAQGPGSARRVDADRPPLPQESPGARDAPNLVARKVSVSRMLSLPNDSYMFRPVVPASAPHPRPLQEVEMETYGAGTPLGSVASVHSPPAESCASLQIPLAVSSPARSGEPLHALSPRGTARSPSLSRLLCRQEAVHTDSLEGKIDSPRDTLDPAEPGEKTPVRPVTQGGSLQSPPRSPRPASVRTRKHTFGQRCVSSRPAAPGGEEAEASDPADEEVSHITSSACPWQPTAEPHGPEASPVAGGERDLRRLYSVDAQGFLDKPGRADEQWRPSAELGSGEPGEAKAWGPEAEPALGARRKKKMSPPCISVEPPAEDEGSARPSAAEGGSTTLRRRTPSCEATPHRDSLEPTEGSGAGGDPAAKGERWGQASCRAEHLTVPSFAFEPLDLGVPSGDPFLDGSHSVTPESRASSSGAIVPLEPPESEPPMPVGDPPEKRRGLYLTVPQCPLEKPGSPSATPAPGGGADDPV

C=C(C)[C@@H]1CC[C@]2(C(=O)O)CC[C@]3(C)[C@H](CC[C@@H]4[C@@]5(C)CC[C@H](O)C(C)(C)[C@@H]5CC[C@]43C)[C@@H]12 [BA, betulinic acid]
inhibition at 20 µM (hCav3.2): 66.1 ± 4.6%
inhibition at 20 µM (hCav3.3): 31.4 ± 1.8%
inhibition at 20 µM (rCav2.2): 69.8 ± 2.5%
